# Measured values reported in patent publication US11434235B2, “Solid form of dihydropyrimidine compound and preparation method therefor and use thereof” (SICHUAN KELUN-BIOTECH BIOPHARMACEUTICAL CO., LTD., priority 2018, dated 2022).
# Tests used:
# [1] = biological target: hERG (Homo sapiens, UniProt Q12809); conditions: background statement, no test described; cited from earlier work
# [2] = Stability of the crystalline form A at room temperature (XRPD); assay type: physicochemical; conditions: 15 days
# Experimental: (§1) X′Pert3 Powder diffractometer using Cu target radiation was employed, and the detection was performed at room temperature with Absolute scan. The detection range was 3.5° to 40° with a step size of 0.013° and a dwell time of 50 s, scan time: 1. A sample of the crystalline form A of the compound of Formula (I) was allowed to stand at room temperature, and samples were taken on Day 5 and 15 for XRPD detection.
# [3] = Stability of the crystalline form A at a high temperature (XRPD); assay type: physicochemical; conditions: 7 days
# Experimental: as §1, with “stand under vacuum” for “stand”, “60° C.,” for “room temperature,”, “Day 2,” for “Day”, “7, respectively,” for “15”
# [4] = Stability of the crystalline form A under grinding (XRPD); assay type: physicochemical; conditions: ground in a mortar for 5 minutes
# Experimental: as §1, with “ground” for “allowed to stand”, “a constant speed in a mortar,” for “room temperature,”, “after the grinding was performed for 2 and” for “on Day”, “minutes, respectively,” for “and 15”
# [5] = DVS study (hygroscopicity) of the crystalline form A; assay type: physicochemical
# Experimental: The experimental conditions for the dynamic vapor sorption (DVS) were as follows: The detection was performed with DVS Intrinsic (SMS) at 25° C. in a cycle-DMDT mode. The hygroscopicity of a sample of the crystalline form A of the compound of Formula (I) was measured through dynamic vapor sorption (DVS): the hygroscopicity thereof was measured at 25° C., 10% humidity gradient in the range of 0%-90%-0%.
# [6] = Pharmacokinetic experiment of the crystalline form A in rats; assay type: in vivo; conditions: both sexes, Sprague-Dawley (SD), rat, blood, 3 mg/kg
# Description: Formulation of the test sample for intravenous administration: the sample of Example 5 (the solvent used in the crystal preparation was isopropanol) was taken and dissolved in 5% DMSO+5% Solutol (HS15)+90% normal saline, to obtain the test sample solution for intravenous administration;
# Formulation of the test sample for intragastric administration: the sample of Example 5 (the solvent used in the crystal preparation was isopropanol) was taken and suspended in 97.5% of 0.5% methyl cellulose (MC)+2.5% Solutol (HS15) to obtain a suspension, which was used as the test sample for intragastric administration.
# 12 SD rats were randomly divided into two groups, groups A and B (6 rats per group, half male and half female). The rats in Group A were each given a single intravenous injection of the sample drug; the rats in Group B were each given the sample drug through intragastric administration, and the dosages are both 3 mg/kg. The blood sampling time points for the intravenous and intragastric administration were before administration and 0.083, 0.25, 0.5, 1.0, 2.0, 4.0, 6.0, 8.0, 10, and 24 h after administration.
# [7] = system: SD rats; experiment: Single-dose toxicity in SD rats; assay type: in vivo
# Description: The mortar was washed with a 0.5% methyl cellulose (MC) solution with grinding, until there was no visible residue. The mixture was transferred to a calibrated container, and then diluted with a 0.5% methyl cellulose solution to the volume. The solution was stirred uniformly with a magnetic stirrer to obtain a suspension, which was used as the test sample.
# 4 groups (10 rats per group, half male and half female) were set in the single-dose toxicity test in SD rats, and they were the vehicle control group and the low-, medium-, and high-dose groups of the crystalline form A of the compound of Formula (I), respectively.
# [8] = system: Beagle dogs; experiment: Single dose toxicity in Beagle dogs; assay type: in vivo
# Experimental: Formulation of the test sample: a required amount of a sample of the crystalline form A of Example 5 (the solvent used in the crystal preparation was isopropanol) was weighed and added to a mortar, polyethylene glycol-15 hydroxystearate (HS15) in an amount of 2.5% of the total volume was added, and the sample was evenly ground. The mortar was washed with a 0.5% methyl cellulose (MC) solution with grinding, until there was no visible residue. The mixture was transferred to a calibrated container, and then diluted with a 0.5% methyl cellulose solution to the volume. The solution was stirred uniformly with a magnetic stirrer to obtain a suspension, which was used as the test sample.
# 3 groups (4 dogs per group, half male and half female) were set in the single-dose toxicity test in Beagle dogs, and they were the vehicle control group and the low- and high-dose groups of the crystalline form A of the compound of Formula (I).
# [9] = Determination of the solubility of the crystalline form A; assay type: physicochemical; conditions: 25±2° C., Chinese Pharmacopoeia 2015 terms
# Experimental: Test solvents: methanol, acetonitrile, ethanol, isopropanol, a 0.1 mol/L aqueous solution of hydrochloric acid and a 0.1 mol/L aqueous solution of sodium hydroxide. Test method: the investigation was conducted according to Item 15(2) of the General Notices in Volume IV of the Chinese Pharmacopoeia (2015 edition). An appropriate amount of a sample of the crystalline form A prepared in Example 5 (the solvent used in the crystal preparation was isopropanol) was weighed and added to a certain volume of the solvent at 25±2° C. The mixture was shaken strongly for 30 seconds at an interval of 5 minutes. […] It was considered to be completely soluble if none of the particles of the solute was observed.
# [10] = Determination of the log P value (Sirius T3, pH-metric medium log P); assay type: physicochemical; conditions: titration from low to high pH
# Experimental: The log P value of a sample of the crystalline form A prepared in Example 5 (the solvent used in the crystal preparation was isopropanol) was measured with the Sirius T3 instrument for physical and chemical profile determination. The Sirius log P test method (pH-metric medium log P) was employed, wherein the pH-metric medium log P determination mode was selected, and the titration order was from low to high pH.
# [11] = po, SD rats, intragastric, single dose, n = 6
# [12] = SD rats, intravenous, single dose, n = 6
# Chain of hERG (Q12809 whole entry): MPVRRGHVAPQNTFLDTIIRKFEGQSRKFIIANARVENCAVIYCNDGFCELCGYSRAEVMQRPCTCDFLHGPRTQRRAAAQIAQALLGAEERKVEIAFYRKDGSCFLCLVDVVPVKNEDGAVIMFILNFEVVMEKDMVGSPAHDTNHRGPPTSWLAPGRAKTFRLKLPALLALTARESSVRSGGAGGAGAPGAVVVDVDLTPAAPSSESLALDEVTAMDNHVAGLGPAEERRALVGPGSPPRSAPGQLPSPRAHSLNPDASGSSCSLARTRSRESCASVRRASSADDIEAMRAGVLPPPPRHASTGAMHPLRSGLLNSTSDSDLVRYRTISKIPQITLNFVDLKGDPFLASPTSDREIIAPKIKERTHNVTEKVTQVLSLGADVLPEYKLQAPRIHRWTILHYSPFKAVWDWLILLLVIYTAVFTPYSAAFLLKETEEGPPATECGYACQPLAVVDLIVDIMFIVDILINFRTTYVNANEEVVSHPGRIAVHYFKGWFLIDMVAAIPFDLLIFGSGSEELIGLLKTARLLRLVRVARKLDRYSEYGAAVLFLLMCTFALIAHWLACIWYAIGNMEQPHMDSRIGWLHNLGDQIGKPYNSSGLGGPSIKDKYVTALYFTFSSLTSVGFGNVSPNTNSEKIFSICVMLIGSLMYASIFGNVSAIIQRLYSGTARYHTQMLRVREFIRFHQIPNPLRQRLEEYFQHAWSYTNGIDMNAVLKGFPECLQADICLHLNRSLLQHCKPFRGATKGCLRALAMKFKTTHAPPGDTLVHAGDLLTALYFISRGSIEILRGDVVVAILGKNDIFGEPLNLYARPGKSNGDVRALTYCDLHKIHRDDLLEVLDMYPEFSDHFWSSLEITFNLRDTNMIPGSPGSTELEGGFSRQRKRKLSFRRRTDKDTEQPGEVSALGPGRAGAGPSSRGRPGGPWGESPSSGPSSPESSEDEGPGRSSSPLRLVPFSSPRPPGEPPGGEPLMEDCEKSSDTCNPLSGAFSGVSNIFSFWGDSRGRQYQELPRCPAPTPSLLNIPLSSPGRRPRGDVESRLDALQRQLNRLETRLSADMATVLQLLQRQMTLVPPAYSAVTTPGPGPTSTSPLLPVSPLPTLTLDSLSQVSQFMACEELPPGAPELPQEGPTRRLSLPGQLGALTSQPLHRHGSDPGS
compound,measurement,setting,value
"COC(=O)C1=C(CN2CCO[C@H](/C=C/C(=O)O)C2)NC(c2nccs2)=N[C@H]1c1ccc(F)cc1Cl [compound of Formula (I), (E)-3-((R)-4-(((R)-6-(2-chloro-4-fluorophenyl)-5-(methoxycarbonyl)-2-(thiazol-2-yl)-3,6-dihydropyrimidin-4-yl)methyl)morpholin-2-yl)acrylic acid]",cardiotoxicity,[1],no cardiotoxicity
"COC(=O)C1=C(CN2CCO[C@H](/C=C/C(=O)O)C2)NC(c2nccs2)=N[C@H]1c1ccc(F)cc1Cl [crystalline form A, (E)-3-((R)-4-(((R)-6-(2-chloro-4-fluorophenyl)-5-(methoxycarbonyl)-2-(thiazol-2-yl)-3,6-dihydropyrimidin-4-yl)methyl)morpholin-2-yl)acrylic acid]",crystalline form after standing at room temperature (XRPD),[2],did not change
same,crystalline form after standing under vacuum at 60° C. (XRPD),[3],did not change
same,crystalline form after grinding (XRPD),[4],did not change
same,weight increase by hygroscopy,"[5]; DVS, 25° C., 80% humidity",0.28%
same,hygroscopicity class (Chinese Pharmacopoeia 2015),[5]; weight increase within 0.2%-2%,slightly hygroscopic
same,bioavailability,"[6]; oral, rats, intragastric vs intravenous, calculated based on AUC0-∞, read-out: absolute bioavailability",62.4%
same,AUC(0-inf),[6]; [11],6490 ± 2950 ng·h/mL
same,AUC(0-t),[6]; [11],6460 ± 2940 ng·h/mL
same,Cmax,[6]; [11],3980 ± 1440 ng/mL
same,half-life,[6]; [11],60.6 ± 15.6 min
same,Tmax,"[6]; po, SD rats, intragastric, single dose, n = 6, median (range in next line)",22.8 min
same,AUC(0-inf),[6]; [12],10400 ± 4500 ng·h/mL
same,AUC(0-t),[6]; [12],10400 ± 4500 ng·h/mL
same,Cmax,[6]; [12],9210 ± 2100 ng/mL
same,half-life,[6]; [12],52.8 ± 10.8 min
same,abnormalities after 14 days,"[7]; intragastric single dose, condition, body weight, food intake, hematology, blood biochemistry, gross anatomy",no abnormalities were observed
same,"tolerability, single dose","[7]; intragastric, low-, medium-, high-dose groups, 14 days observation",well tolerated
same,"tolerability, single dose","[8]; Beagle dogs, intragastric, low- and high-dose groups, 14 days observation",well tolerated
same,abnormalities after 14 days,"[8]; dog, in vivo",no abnormalities were observed
same,solubility in 0.1 mol/L aqueous solution of hydrochloric acid,[9],sparingly soluble
same,solubility in 0.1 mol/L aqueous solution of sodium hydroxide,[9],sparingly soluble
same,solubility in acetonitrile,[9],soluble
same,solubility in ethanol,[9],soluble
same,solubility in isopropanol,[9],slightly soluble
same,solubility in methanol,[9],soluble
same,logP,[10],2.4 to 2.6
